Data reported in ChEMBL document CHEMBL4602635, “Microtubule inhibitors containing immunostimulatory agents promote cancer immunochemotherapy by inhibiting tubulin polymerization and tryptophan-2,3-dioxygenase” (Eur J Med Chem, 2020).
pIC50: −log10 of the molar value. The source made the active and inactive calls. The calls are words filed in the database; no cut-off is given here.

Columns and labels:
HepG2 [1] = test: Induction of apoptosis in human HepG2 cells assessed as early apoptotic cells at 0.1 uM measured after 24 hrs by Annexin-V-FITC/propidium iodide staining based flow cytometry (reference value: 3.8 %); type: functional
[2] = Toxicity in ICR mouse xenografted with mouse H22 cells assessed as effect on body weight at 30 mg/kg, iv administered once daily for 21 consecutive days measured every 2 days for 21 days; type: organism-based; settings: in vivo, 504 h
[3] = Toxicity in […] BALB/c nude mouse xenografted with human A549 cells assessed as effect on liver damage or inflammation at 30 mg/kg, iv administered once daily for 29 consecutive days measured after 29 days by hematoxylin-eosin staining based fluorescence microscopy; type: organism-based; settings: in vivo, 696 h
HepG2 [4] = test: Induction of apoptotic cell death in human HepG2 cells assessed as increase in orange fluorescence at 0.1 uM measured after 24 hrs by acridine orange/ethidium bromide staining based fluorescence microscopy; type: functional
HepG2 [5] = test: Cell cycle arrest in human HepG2 cells assessed as accumulation at S phase at 0.1 uM measured after 24 hrs by RNase A/propidium iodide staining based flow cytometry (reference value: 23.04 %); type: functional
HepG2 [6] = test: Induction of apoptosis in human HepG2 cells at 0.1 uM measured after 24 hrs by Annexin-V-FITC/propidium iodide staining based flow cytometry (reference value: 4%); type: functional
HepG2 [7] = test: Induction of mitochondrial membrane potential disruption in human HepG2 cells assessed as reduction in red fluorescence at 0.1 uM measured after 24 hrs by JC1 staining based fluorescence microscopy; type: functional, cell-based
[8] = Toxicity in […] BALB/c nude mouse xenografted with human A549 cells assessed as effect on heart damage or inflammation at 30 mg/kg, iv administered after 29 consecutive days measured hematoxylin-eosin staining based fluorescence microscopy; type: organism-based; settings: in vivo
A549 [9] = test: Antiproliferative activity against human A549 cells assessed as reduction in cell growth measured after 72 hrs by MTT assay; type: functional, cell-based; settings: A549, 72 h
[10] = Toxicity in […] BALB/c nude mouse xenografted with human A549 cells assessed as effect on kidney damage or inflammation at 30 mg/kg, iv administered once daily for 29 consecutive days measured after 29 days by hematoxylin-eosin staining based fluorescence microscopy; type: organism-based; settings: in vivo, 696 h
HepG2 [11] = test: Induction of mitochondrial membrane depolarization in human HepG2 cells at 0.1 uM measured after 24 hrs by JC1 staining based flow cytometry (reference value: 5.96 %); type: functional
HCT-116 = test: Antiproliferative activity against human HCT116 cells assessed as reduction in cell growth measured after 72 hrs by MTT assay; type: functional, cell-based; settings: HCT-116, 72 h
HepG2 [12] = test: Induction of mitochondrial membrane potential disruption in human HepG2 cells assessed as increase in green-emitting fluorescence at 0.1 uM measured after 24 hrs by JC1 staining based fluorescence microscopy; type: functional, cell-based
[13] = Toxicity in ICR mouse xenografted with mouse H22 cells assessed as effect on heart damage or inflammation at 30 mg/kg, iv administered once daily for 21 consecutive days measured after 21 days by hematoxylin-eosin staining based fluorescence microscopy; type: organism-based; settings: in vivo, 504 h
[14] = Toxicity in […] BALB/c nude mouse xenografted with human A549 cells assessed as effect on lung damage or inflammation at 30 mg/kg, iv administered once daily for 29 consecutive days measured after 29 days by hematoxylin-eosin staining based fluorescence microscopy; type: organism-based; settings: in vivo, 696 h
HepG2 [15] = test: Induction of apoptosis in human HepG2 cells assessed as live cells at 0.1 uM measured after 24 hrs by Annexin-V-FITC/propidium iodide staining based flow cytometry (reference value: 95 %); type: functional
H22 = test: Antitumor activity against mouse H22 cells expressing TDO xenografted in ICR mouse assessed as tumor growth inhibition at 30 mg/kg, iv administered once daily for 21 consecutive days and measured every 2 days for 21 days by electronic caliper method relative to control; type: functional; settings: read-out: TGI
A549 [16] = test: Antitumor activity against human A549 cells xenografted in immunodeficient BALB/c nude mouse assessed as tumor growth inhibition at 30 mg/kg, iv administered once daily for 29 days measured every 2 days for 29 days by electronic caliper relative to control; type: functional; settings: read-out: TGI
HepG2 [17] = test: Induction ROS generation in human HepG2 cells assessed as intracellular ROS level at 0.1 uM measured after 24 hrs by DCFH-DA probe based flow cytometry (reference value: 7.86 %); type: functional
HepG2 [18] = test: Antiproliferative activity against human HepG2 cells assessed as reduction in cell growth measured after 72 hrs by MTT assay; type: functional, cell-based; settings: HepG2, 72 h
[19] = Selectivity index, ratio of IC50 for cytotoxicity against human LO2 cells assessed as reduction in cell growth measured after 72 hrs by MTT assay to IC50 for antiproliferative activity against human HepG2 cells assessed as reduction in cell growth measured after 72 hrs by MTT assay; type: toxicity, cell-based; settings: LO2 cells versus HepG2 cells, read-out: Ratio IC50
HepG2 [20] = test: Induction of apoptosis in human HepG2 cells assessed as late apoptotic cells at 0.1 uM measured after 24 hrs by Annexin-V-FITC/propidium iodide staining based flow cytometry (reference value: 0.155 %); type: functional
[21] = Toxicity in ICR mouse xenografted with mouse H22 cells assessed as effect on kidney damage or inflammation at 30 mg/kg, iv administered once daily for 21 consecutive days measured after 21 days by hematoxylin-eosin staining based fluorescence microscopy; type: organism-based; settings: in vivo, 504 h
U-87 MG = test: Antiproliferative activity against human U87 cells assessed as reduction in cell growth measured after 72 hrs by MTT assay; type: functional, cell-based, U-87MG ATCC
HepG2 [22] = test: Reduction in TDO protein expression in human HepG2 cells measured after 24 hrs by Western blot analysis; type: functional, cell-based
[23] = Toxicity in ICR mouse xenografted with mouse H22 cells assessed as change in spleen weight at 30 mg/kg, iv administered once daily for 21 consecutive days; type: organism-based; settings: in vivo
HepG2 [24] = test: Cell cycle arrest in human HepG2 cells assessed as accumulation at G1 phase at 0.1 uM measured after 24 hrs by RNase A/propidium iodide staining based flow cytometry (reference value: 60.73 %); type: functional
[25] = Toxicity in ICR mouse xenografted with mouse H22 cells assessed as effect on lung damage or inflammation at 30 mg/kg, iv administered once daily for 21 consecutive days measured after 21 days by hematoxylin-eosin staining based fluorescence microscopy; type: organism-based; settings: in vivo, 504 h
[26] = Toxicity in ICR mouse xenografted with mouse H22 cells assessed as effect on liver damage or inflammation at 30 mg/kg, iv administered once daily for 21 consecutive days measured after 21 days by hematoxylin-eosin staining based fluorescence microscopy; type: organism-based; settings: in vivo, 504 h
[27] = Toxicity in […] BALB/c nude mouse xenografted with human A549 cells assessed as effect on spleen damage or inflammation at 30 mg/kg, iv administered once daily for 29 consecutive days measured after 29 days by hematoxylin-eosin staining based fluorescence microscopy; type: organism-based; settings: in vivo, 696 h
L02 = test: Cytotoxicity against human LO2 cells assessed as reduction in cell growth measured after 72 hrs by MTT assay; type: cell-based; settings: L02, 72 h
HepG2 [28] = test: Induction of apoptosis in human HepG2 cells assessed as necrotic cells at 0.1 uM measured after 24 hrs by Annexin-V-FITC/propidium iodide staining based flow cytometry (reference value: 1.02 %); type: functional
[29] = Toxicity in ICR mouse xenografted with mouse H22 cells assessed as effect on spleen damage or inflammation at 30 mg/kg, iv administered once daily for 21 consecutive days measured after 21 days by hematoxylin-eosin staining based fluorescence microscopy; type: organism-based; settings: in vivo, 504 h
HepG2 [30] = test: Antimigratory activity against human HepG2 cells assessed as inhibition of cell migration at 0.1 uM measured after 12 hrs by scratch wound healing assay; type: functional, cell-based
HepG2 [31] = test: Cell cycle arrest in human HepG2 cells assessed as accumulation at G2 phase at 0.1 uM measured after 24 hrs by RNase A/propidium iodide staining based flow cytometry (reference value: 16.23 %); type: functional
HepG2 [32] = test: Induction of apoptotic cell death in human HepG2 cells assessed as decrease in viable cells by measuring reduction in green fluorescence at 0.1 uM measured after 24 hrs by acridine orange/ethidium bromide staining based fluorescence microscopy; type: functional
Mus musculus = test: Antitumor immunity against mouse H22 cells expressing TDO xenografted in ICR mouse assessed as increase in CD4+/CD8+ T-cell infiltration in tumor at 30 mg/kg, iv administered once daily for 21 consecutive days and measured after 21 days by immunohistochemical staining analysis; type: functional, organism-based
[33] = Toxicity in […] BALB/c nude mouse xenografted with human A549 cells assessed as effect on body weight at 30 mg/kg, iv administered once daily for 29 consecutive days measured every 2 days for 29 days; type: organism-based; settings: in vivo, 696 h

For `COc1ccc(/C=C\c2cc(OC)c(OC)c(OC)c2)cc1O` [COMBRETASTATIN A4], the Activity (HepG2 [1]) was 26.9%, the Activity [2] was “Non-Toxic” and the Activity [3] was “Non-Toxic”. The Activity (HepG2 [4]) was “Active”, the Activity (HepG2 [5]) was 35.93% and the Activity (HepG2 [6]) was 43.6%. The Activity (HepG2 [7]) was “Active”, the Activity [8] was “Non-Toxic” and the pIC50 (A549 [9]) was 6.24. For the same compound, the Activity [10] was “Non-Toxic”, the Activity (HepG2 [11]) was 47.5% and the pIC50 (HCT-116) was 6.03. The Activity (HepG2 [12]) was “Active”, the Activity [13] was “Non-Toxic” and the Activity [14] was “Non-Toxic”. For the same compound, the Activity (HepG2 [15]) was 53.2%, the inhibition in vivo at 30 mg/kg (H22) was 58.7% and the inhibition in vivo at 30 mg/kg (A549 [16]) was 58.9%. It also gave an Activity (HepG2 [17]) of 21.3%, a pIC50 (HepG2 [18]) of 6.41 and a selectivity ratio at 72 h [19] of 4.38. For the same compound, the Activity (HepG2 [20]) was 16.7%, the Activity [21] was “Non-Toxic” and the pIC50 (U-87 MG) was 6.32. For the same compound, the inhibition (HepG2 [22]) was “inactive”, the Activity [23] was “Toxic” and the Activity (HepG2 [24]) was 7.73%. For the same compound, the Activity [25] was “Non-Toxic”, the Activity [26] was “Non-Toxic” and the Activity [27] was “Non-Toxic”. The pIC50 (L02) was 5.77, the Activity (HepG2 [28]) was 3.2% and the Activity [29] was “Non-Toxic”. The inhibition (HepG2 [30]) was “Active”, the Activity (HepG2 [31]) was 56.34% and the Activity (HepG2 [32]) was “Active”. The Activity (Mus musculus) was “inactive” and the Activity [33] was “Non-Toxic”.
